{
  "source": "patent US5100914A",
  "about": "“Arylalkoxycoumarins” (BASF Aktiengesellschaft, priority 1988, dated 1992)",
  "key": {"[1]": {"target": "T1, MAO A (Rattus norvegicus, UniProt P21396)", "T1 construct": "carried out in dilute rat brain homogenate; from tissue; host or cells: rat brain homogenate", "T1 sequence (P21396 1-526)": "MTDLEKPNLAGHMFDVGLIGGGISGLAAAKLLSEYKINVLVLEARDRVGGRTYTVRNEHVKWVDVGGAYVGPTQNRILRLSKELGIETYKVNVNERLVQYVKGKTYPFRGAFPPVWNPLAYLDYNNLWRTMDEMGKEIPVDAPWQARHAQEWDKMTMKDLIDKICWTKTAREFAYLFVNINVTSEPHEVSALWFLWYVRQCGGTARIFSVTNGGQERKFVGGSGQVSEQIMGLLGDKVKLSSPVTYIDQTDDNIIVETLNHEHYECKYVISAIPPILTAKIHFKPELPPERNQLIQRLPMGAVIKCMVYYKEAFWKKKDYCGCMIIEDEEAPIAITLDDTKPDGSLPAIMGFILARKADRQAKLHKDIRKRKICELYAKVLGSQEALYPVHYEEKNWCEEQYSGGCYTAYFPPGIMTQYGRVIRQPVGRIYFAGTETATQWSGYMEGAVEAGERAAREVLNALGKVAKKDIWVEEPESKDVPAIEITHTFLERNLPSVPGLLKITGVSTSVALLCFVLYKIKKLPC", "assay": "determination of monoaminooxidase A inhibition in dilute rat brain homogenate", "format": "biochemical", "details": "14C-phenylethylamine or 14C-tryptamine 0.4 μmol/l, 20 min, 37° C., logit-log regression, read-out: IC50 MAO A (mean inhibitory concentration)", "procedure": "(§1) The MAO-inhibiting activity of the novel compounds can be determined using standard methods. […] This mixture was incubated for 20 minutes at 37° C. […] The blank value was determined in similar mixtures with an incubation time of t =0 min.\n(§2) From the inhibitory values determined at the various inhibitor concentrations against the controls, the mean inhibitory concentration (IC50) was calculated by linear regression following logit-log transformation."}, "[2]": {"target": "T2, MAO B (Rattus norvegicus, UniProt P19643)", "T2 construct": "carried out in dilute rat brain homogenate; from tissue; host or cells: rat brain homogenate", "T2 sequence (P19643 1-520)": "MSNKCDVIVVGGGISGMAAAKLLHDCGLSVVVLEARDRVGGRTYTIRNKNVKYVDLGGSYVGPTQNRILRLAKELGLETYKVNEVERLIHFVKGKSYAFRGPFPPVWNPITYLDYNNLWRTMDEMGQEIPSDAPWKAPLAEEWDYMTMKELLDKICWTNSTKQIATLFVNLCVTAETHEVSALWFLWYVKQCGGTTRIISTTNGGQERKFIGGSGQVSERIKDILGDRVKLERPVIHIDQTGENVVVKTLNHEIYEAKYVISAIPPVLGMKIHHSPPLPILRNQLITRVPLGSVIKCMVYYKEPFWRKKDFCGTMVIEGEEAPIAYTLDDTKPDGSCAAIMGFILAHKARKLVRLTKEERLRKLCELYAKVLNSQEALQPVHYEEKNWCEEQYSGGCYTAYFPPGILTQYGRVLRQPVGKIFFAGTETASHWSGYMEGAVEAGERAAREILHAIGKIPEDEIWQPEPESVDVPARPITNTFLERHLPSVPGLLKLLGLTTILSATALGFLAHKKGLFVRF", "assay": "determination of monoaminooxidase B inhibition in dilute rat brain homogenate", "format": "biochemical", "details": "20 min; for IC50: 14C-phenylethylamine or 14C-tryptamine 0.4 μmol/l, 37° C., logit-log regression, read-out: IC50 MAO B (mean inhibitory concentration); for MAO B selectivity (IC50 MAO A / IC50 MAO B): selectivity ratio from the two IC50 values", "procedure": "as §1, §2"}, "[3]": {"details": "J. Agric. Food Chem. 34 (2), 185-188; cited from earlier work"}},
  "data": [
    {"molecule": "Cc1c(C)c2ccc(OCc3ccc4ccccc4c3)cc2oc1=O", "note": "[Example 4, 3,4-Dimethyl-7-(2-naphthyl)-methoxycoumarin]", "values": [
      {"measurement": "IC50", "setting": "[1]", "result": "> 10000", "unit": "nM"},
      {"measurement": "IC50", "setting": "[2]", "result": 11, "unit": "nM"},
      {"measurement": "MAO B selectivity (IC50 MAO A / IC50 MAO B)", "setting": "[2]", "result": "> 900"}
    ]},
    {"molecule": "Cc1c(C)c2ccc(OCCCc3ccccc3)cc2oc1=O", "note": "[Example 35, 3,4-Dimethyl-7-(3-phenylpropoxy)-coumarin]", "values": [
      {"measurement": "IC50", "setting": "[1]", "result": 1200, "unit": "nM"},
      {"measurement": "IC50", "setting": "[2]", "result": 4.2, "unit": "nM"},
      {"measurement": "MAO B selectivity (IC50 MAO A / IC50 MAO B)", "setting": "[2]", "result": 280}
    ]},
    {"molecule": "CC(C)c1ccc(COc2ccc3ccc(=O)oc3c2)cc1", "note": "[Example 26, 7-(4-Isopropylphenyl)-methoxycoumarin]", "values": [
      {"measurement": "IC50", "setting": "[1]", "result": "> 10000", "unit": "nM"},
      {"measurement": "IC50", "setting": "[2]", "result": 1.8, "unit": "nM"},
      {"measurement": "MAO B selectivity (IC50 MAO A / IC50 MAO B)", "setting": "[2]", "result": "> 5600"}
    ]},
    {"molecule": "Cc1cc(=O)oc2cc(OCc3ccc(C(C)C)cc3)ccc12", "note": "[Example 27, 4-Methyl-7-(4-isopropylphenyl)-methoxycoumarin]", "values": [
      {"measurement": "IC50", "setting": "[1]", "result": "> 10000", "unit": "nM"},
      {"measurement": "IC50", "setting": "[2]", "result": 4.7, "unit": "nM"},
      {"measurement": "MAO B selectivity (IC50 MAO A / IC50 MAO B)", "setting": "[2]", "result": "> 2100"}
    ]},
    {"molecule": "Cc1c(Cl)c(=O)oc2cc(OCc3ccc(C(C)C)cc3)ccc12", "note": "[Example 33, 3-Chloro-4-methyl-7-(4-isopropylphenyl)-methoxycoumarin]", "values": [
      {"measurement": "IC50", "setting": "[1]", "result": "> 10000", "unit": "nM"},
      {"measurement": "IC50", "setting": "[2]", "result": 4.3, "unit": "nM"},
      {"measurement": "MAO B selectivity (IC50 MAO A / IC50 MAO B)", "setting": "[2]", "result": "> 2400"}
    ]},
    {"molecule": "CCc1cc2c(C)c(C)c(=O)oc2cc1OCCc1ccccc1", "note": "[Example 23, 6-Ethyl-3,4-dimethyl-7-(2-phenyl)-ethoxycoumarin]", "values": [
      {"measurement": "IC50", "setting": "[1]", "result": "> 10000", "unit": "nM"},
      {"measurement": "IC50", "setting": "[2]", "result": 13, "unit": "nM"},
      {"measurement": "MAO B selectivity (IC50 MAO A / IC50 MAO B)", "setting": "[2]", "result": "> 770"}
    ]},
    {"molecule": "Cc1c(C)c2cc(Cl)c(OCc3ccc(C(C)C)cc3)cc2oc1=O", "note": "[Example 38, 6-Chloro-3,4-dimethyl-7-(4-isopropylphenyl)-methoxycoumarin]", "values": [
      {"measurement": "IC50", "setting": "[1]", "result": "> 10000", "unit": "nM"},
      {"measurement": "IC50", "setting": "[2]", "result": 31, "unit": "nM"},
      {"measurement": "MAO B selectivity (IC50 MAO A / IC50 MAO B)", "setting": "[2]", "result": "> 320"}
    ]},
    {"molecule": "Cc1cc(=O)oc2cc(OCc3c(F)c(F)c(F)c(F)c3F)ccc12", "note": "[7-pentafluorophenylmethoxy-4-methylcoumarin]", "values": [
      {"measurement": "fungicidal activity", "setting": "[3]", "result": "has fungicidal activity"}
    ]},
    {"molecule": "Cc1cc2ccc(OCc3ccc(C(C)C)cc3)cc2oc1=O", "note": "[Example 28, 3-Methyl-7-(4-isopropylphenyl)-methoxycoumarin]", "values": [
      {"measurement": "IC50", "setting": "[1]", "result": "> 10000", "unit": "nM"},
      {"measurement": "IC50", "setting": "[2]", "result": 2.8, "unit": "nM"},
      {"measurement": "MAO B selectivity (IC50 MAO A / IC50 MAO B)", "setting": "[2]", "result": "> 3600"}
    ]},
    {"molecule": "Cc1ccc(C)c(COc2ccc3c(C)c(C)c(=O)oc3c2)c1", "note": "[Example 10, 3,4-Dimethyl-7-(2,5-dimethylphenyl)-methoxycoumarin]", "values": [
      {"measurement": "IC50", "setting": "[1]", "result": "> 10000", "unit": "nM"},
      {"measurement": "IC50", "setting": "[2]", "result": 3.7, "unit": "nM"},
      {"measurement": "MAO B selectivity (IC50 MAO A / IC50 MAO B)", "setting": "[2]", "result": "> 2700"}
    ]}
  ]
}
